Measured values reported in BigSolDB 2.1.

CC(C)CCC[C@@H](C)[C@H]1CC[C@H]2[C@@H]3CC=C4C[C@@H](O)CC[C@]4(C)[C@H]3CC[C@]12C
solubility (mole fraction)
Conditions | in MIBK | in acetic acid | in anisole | in ethyl acetate | in methanol | in n-heptane
283.2 K | 0.0101 | 0.00053 | 0.0176 | 0.00593 | 0.00021 | 0.00198
293.2 K | 0.0142 | 0.0012 | 0.0205 | 0.00952 | 0.00042 | 0.00372
303.2 K | 0.0272 | 0.00143 | 0.024 | 0.0146 | 0.00073 | 0.00609
313.2 K | 0.036 | 0.00255 | 0.0325 | 0.0209 | 0.00105 | 0.00863
323.2 K | 0.0483 | 0.00382 | 0.0442 | 0.033 | 0.00127 | 0.0152
